PubChem BioAssay (NCI)
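48-hour exposure; five concentrations; linearly interpolated endpoints. GI50 = concentration required for 50% inhibition of growth. The concentration for full growth arrest is given as TGI.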

Tests used:
Experiment in all cases: growth of human tumour cells (NCI), 48 h
ACHN renal = test system: ACHN renal
COLO 205 colon = test system: COLO 205 colon
HOP-62 NSCLC = test system: HOP-62 NSCLC
HT29 colon = test system: HT29 colon
KM12 colon = test system: KM12 colon
LOX IMVI melanoma = test system: LOX IMVI melanoma
MCF7 breast = test system: MCF7 breast
NCI-H522 lung = test system: NCI-H522 lung
SF-539 CNS = test system: SF-539 CNS
RXF 393 renal = test system: RXF 393 renal

SMILES | GI50 (ACHN renal) [µM] | TGI (ACHN renal) [µM] | GI50 (COLO 205 colon) [µM] | TGI (COLO 205 colon) [µM] | GI50 (HOP-62 NSCLC) [µM] | TGI (HOP-62 NSCLC) [µM] | GI50 (HT29 colon) [µM] | TGI (HT29 colon) [µM] | GI50 (KM12 colon) [µM] | TGI (KM12 colon) [µM] | GI50 (LOX IMVI melanoma) [µM] | TGI (LOX IMVI melanoma) [µM] | GI50 (MCF7 breast) [µM] | TGI (MCF7 breast) [µM] | GI50 (NCI-H522 lung) [µM] | TGI (NCI-H522 lung) [µM] | GI50 (SF-539 CNS) [µM] | TGI (SF-539 CNS) [µM] | TGI (RXF 393 renal) [µM] | GI50 (RXF 393 renal) [µM]
Cc1nc2sccn2c1-c1nc2sccn2c1/C=C1/C(=O)Nc2ccccc21 | 7.72 | > 100 | 2.63 | 10.5 | 3.61 | > 100 | 2.96 | 10.7 | 1.76 | 14.6 | 3.01 | > 100 | 1.5 | 6.51 | 2.72 | 11.1 | 3.72 | 15.6 |  | 
O=Cc1cc2c(cc1-c1cc3c(cc1C=O)OCO3)OCO2 |  | > 100 |  | > 100 |  | > 100 |  | > 100 |  | > 100 |  | 56.3 |  |  |  | > 100 |  | > 100 | 94.1 | 
C/C(=N\NC(N)=O)c1sc(-c2nc(C)c(/C(C)=N/NC(N)=O)s2)nc1C |  | > 100 |  | > 100 |  | > 100 |  | > 100 |  | > 100 |  | > 100 |  |  |  | > 100 |  | > 100 | > 100 | 
CN(C)CCNC(=O)Cc1ccccc1Nc1c(Cl)cccc1Cl |  | 33.3 |  | 30.6 |  | 28.5 |  | 23.5 |  | 35.7 |  | 26.8 |  |  |  |  |  | 31.5 | 31.9 | 
O/N=C1\CCCCC1C(NO)c1ccccc1 (centres undefined) |  | > 100 |  | > 100 |  | > 100 |  | > 100 |  | > 100 |  | > 100 |  |  |  | > 100 |  | > 100 | > 100 | 
C[N+](C)(C)CC(=O)N/N=C(/Cc1cc(=O)oc2cc(O)ccc12)C(=O)Nc1ccc(Cl)cc1 |  | > 100 |  | > 100 |  | > 100 |  | > 100 |  | > 100 |  |  |  |  |  | > 100 |  | > 100 | > 100 | 
COC(=O)c1c2c(c(C)[n+]([O-])c1C)C(=O)C(NCc1ccc(Br)cc1)=CC2=O |  |  |  |  | 2.38 | 7.07 |  |  |  |  | 1.67 | 6.7 | 1.33 | 3.21 |  |  | 2.13 | 4.75 | 5.96 | 1.99
O=S(=O)(OI(OI(OS(=O)(=O)C(F)(F)F)c1ccccc1)c1ccccc1)C(F)(F)F |  | > 100 |  | > 100 |  | > 100 |  |  |  | > 100 |  | > 100 |  |  |  | > 100 |  | > 100 | 73.7 | 
COc1cc(OC)c(OC)cc1/C=N/NC(=O)N/N=C/c1cc(OC)c(OC)cc1OC |  | > 100 |  | > 100 |  |  |  | > 100 |  | > 100 |  | > 100 |  |  |  | 86.5 |  | > 100 |  | 
C=C(C)C(C1C=C(CCC(C=O)=C(C)C)C(=O)O1)C1(OC)C=C(C)C(=O)O1 (centres undefined) | > 100 | > 100 | 63.6 | > 100 | > 100 | > 100 | 57.9 | > 100 | > 100 | > 100 | 39.6 | > 100 | 7.6 | 30.3 | > 100 | > 100 | > 100 | > 100 |  | 
FC(F)(F)c1ccc2nc(NCc3ccccc3)c(-c3ccccc3)nc2c1 |  | > 100 |  | > 100 |  | > 100 |  | > 100 |  |  |  | 52.7 |  |  |  |  |  | > 100 | 71.5 | 
Cc1cc2c(cc1C)[n+](=O)cc(C(=O)C/C(=N/NC(=S)NN)C(=O)Nc1cccc(C(F)(F)F)c1)n2[O-] |  | > 100 |  | > 100 |  | > 100 |  | > 100 |  | > 100 |  |  |  |  |  | > 100 |  | > 100 |  | 
COCOCCC#CCO |  | > 100 |  |  |  |  |  | > 100 |  | > 100 |  | > 100 |  |  |  | > 100 |  | > 100 | > 100 | 
COc1cc(C[P+](c2ccccc2)(c2ccccc2)c2ccccc2)cc(OC)c1OC |  | > 100 |  | > 100 |  | > 100 |  | > 100 |  | > 100 |  | > 100 |  |  |  | > 100 |  | > 100 | > 100 | 
C=C(C)[C@@H]1CC[C@]2(CN)CC[C@]3(C)[C@H](CC[C@@H]4[C@@]5(C)CCCNC(C)(C)[C@@H]5CC[C@]43C)[C@@H]12 | 1.77 | 3.19 | 1.4 | 2.91 | 1.93 | 3.73 |  |  |  |  |  |  | 1.27 | 2.7 |  |  | 1.62 | 3.09 | 3.49 | 1.75
CCCN(CCC)c1c([N+](=O)[O-])cc(C(=O)N(CC)CC)cc1[N+](=O)[O-] |  | > 100 |  | 32.7 |  | > 100 |  | > 100 |  |  |  | 30.8 |  |  |  | 28.6 |  | 58.3 | 63 | 
COC(=N)c1csc(C2OC(CO)C(O)C2O)n1 (centres undefined) |  | > 100 |  | > 100 |  | > 100 |  | > 100 |  | > 100 |  | > 100 |  |  |  | > 100 |  | > 100 |  | 
CN1Nc2ccccc2CC1=O |  | > 100 |  | > 100 |  | > 100 |  | > 100 |  | > 100 |  | > 100 |  |  |  |  |  | > 100 |  | 
CCOc1ccc(OCC(=O)O)c2c1CCCC2=O |  | > 100 |  | > 100 |  | > 100 |  | > 100 |  | > 100 |  | > 100 |  |  |  | > 100 |  | > 100 | > 100 | 
Nc1c(S(=O)(=O)c2ccc(Cl)cc2)c2nc3ccccc3nc2n2ccnc12 |  | > 100 |  | > 100 |  |  |  | > 100 |  | > 100 |  |  |  |  |  | > 100 |  | 36.2 |  | 
CCCCCCCC(=O)OCC1OC(n2cc(F)c(=O)[nH]c2=O)C(N)C(OC(=O)CCCCCCC)C1O (centres undefined) |  | 37.9 |  | 34 |  | 32.5 |  | 33.4 |  | 42.3 |  | 32.5 |  |  |  | 28.9 |  | 36.1 | 31.9 | 
CCOc1ccc(NC(=O)CC2SC(=Nc3ccc(C)cc3C)NC2=O)cc1 (centres undefined) |  | > 100 |  |  |  |  |  | > 100 |  |  |  | > 100 |  |  |  | > 100 |  | 63.7 | > 100 | 
